Entries after “also recorded” stand apart in the source; their conditions may differ.
Legend:
prion = settings: Ref: JBC doi: 10.1074/jbc.M112.355958; cited from earlier work
[1] = molecular target: T1, Human Aβ38, Aβ40 and Aβ42 (Homo sapiens, UniProt P05067); test: Human Aβ38, Aβ40 and Aβ42 in SDS brain homogenate fraction of hAPPSL Tg mice after 90 days treatment; format: in vivo, mouse; settings: twice daily i.p., p-FTAA 1 or 10 mg/kg/day, P9707_003 10 mg/kg/day
T1 construct: from tissue; host or cells: CSF and left brain hemisphere (SDS fraction) of transgenic hAPPSL mice
Method: (§1) Vehicle: Phosphate Buffered Saline (PBS; 6.7 mM PO4, 155 mM NaCl, pH=7.3-7.5) (BioWhittaker PBS from Lonza).
(§2) Test item (T.I.): p-FTAA and P9707_003 diluted in vehicle from stock solution in deionized water (10 mg/ml).
(§3) Tg hAPPSL: Transgenic hAPPSL mice over-expressing hAPP(751) under the control of the murine Thy-1 promoter with a C57BL/6xDBA background.
(§4) Human Aβ38, Aβ40 and Aβ42 were determined in homogenates of the left brain hemispheres and in CSF samples of all Tg animals by an immunosorbent assay from Mesoscale Discovery
48 hAPP Tg mice plus 4 reserves allocated to 4 different treatment groups were treated with either vehicle only (control), p-FTAA or P9707_003. As an additional control, 12 nTg littermates of the hAPPSL mice (plus 1 reserve) were treated with vehicle only. Starting at 6.5 months of age, female hAPPSL mice were treated with vehicle only, p-FTAA (dosage: 1 or 10 mg/kg/day) or P9707_003 (dosage: 10 mg/kg/day) for 90 days. […]
(§5) In the brain homogenate SDS fraction and in CSF of each Tg mouse, human Aβ38, Aβ40 and Aβ42 levels were measured with a Aβ-kit from Mesoscale Discovery. Aβ levels were evaluated in comparison to a peptide standard as pg/mg brain (wet weight) or pg/ml CSF.
Descriptive statistical analysis was performed on all evaluated parameters. […] Group differences between all Tg groups were calculated by a parametric ANOVA followed by a Bonferroni post test.

biotinylated Aβ1-42 = molecular target: T2, biotinylated Aβ1-42 (Homo sapiens, UniProt P05067); test: Inhibition of Abeta oligomerisation (biotinylated Aβ1-42, neutravidin plate, streptavidin-HRP); format: biochemical; settings: inhibition of Aβ1-42 aggregation, approximately 12 nM Aβ1-42, PBS pH 7.4, 2% DMSO, 30 min RT
T2 construct: To assure monomerisation of biotinylated Aβ1-42 (Anaspec #23523-0.5) the peptide was thoroughly monomerised; purchased Anaspec 23523-0.5

[2] = molecular target: T1, Human Aβ38, Aβ40 and Aβ42; test: Human Aβ38, Aβ40 and Aβ42 in CSF of hAPPSL Tg mice after 90 days treatment (immunosorbent assay); format: in vivo, mouse; settings: twice daily i.p., hAPPSL Tg mice, p-FTAA 1 or 10 mg/kg/day, P9707_003 10 mg/kg/day
Method: as §1, §2, §3, §4
(§6) 48 hAPP Tg mice plus 4 reserves allocated to 4 different treatment groups were treated with either vehicle only (control), p-FTAA or P9707_003. As an additional control, 12 nTg littermates of the hAPPSL mice (plus 1 reserve) were treated with vehicle only. Starting at 6.5 months of age, female hAPPSL mice were treated with vehicle only, p-FTAA (dosage: 1 or 10 mg/kg/day) or P9707_003 (dosage: 10 mg/kg/day) for 90 days. The Test Items (T.I.s) were administered in Vehicle. Compound and vehicle were administered twice daily i.p. for 90 days. Tg hAPPSL mice with a C57BL/6xDBA background and corresponding nTg littermates at an age of 6.5 months (±2 weeks) were randomly assigned to the treatment groups.
as §5
Descriptive statistical analysis was performed on all evaluated parameters. All data were represented as mean±standard error of mean (SEM). Grubb's test was used to detect outliers. Normality distribution of the values was tested with Kolmogorov Smirnov normality distribution test. Group differences between all Tg groups were calculated by a parametric ANOVA followed by a Bonferroni post test.

[3] = system: PHF-tau doubly-phosphorylated at Thr231 and Ser235; test: Phosphorylation of Tau in neurites crossing amyloid plaques, AT180 IHC, hAPPSL Tg mice; format: in vivo, mouse
Method: as §1
Test Item (T.I.): p-FTAA and P9707_003, diluted in vehicle from stock solution in deionized water (10 mg/ml).
as §3
as §6, with “(+2” for “(±2”
Histological evaluations were performed with six randomly chosen cryo-frozen brain hemispheres of treatment groups PBS Control, p-FTAA 1 mg/kg/day, p-FTAA 10 mg/kg/day, and P9707_003 10 mg/kg/day.
15 cryo-sections per level (altogether 5 levels), each 10 μm thick (Leica CM 3050S) were sagittally cut. Brain levels were chosen according to the morphology atlas “The Mouse Brain” from Paxinos and Franklin (2nd edition). The cutting of the five levels started with a random slice, then sampling was continued uniformly and systematically, always retaining 15 slices per level in series and discarding 100 μm in between the levels.
TAU phosphorylation was visualized immunohistochemically using the AT180 antibody. Clone AT180 recognizes PHF-tau doubly-phosphorylated at Thr231 and Ser235.
For determination of amyloid depositions 5 slices (1 from each level) per brain were stained and screened. From each slice five images were captured from 5 defined areas in the brain. The order of these positions reflect the time course of plaque deposition in the APPsl model, which starts in the frontal cortex (P11) at the age of 3 months and then spreads to the medial (P12) and dorsal cortex over age. At six months of age, plaques can be found in the medial cortex (P13), from then plaque load spreads into the hippocampal formation with hot spots in the subiculum (P14) and the dentate gyrus (P15) at the age of nine months.
Mosaic images for plaque load quantification including the whole cortex and hippocampus were recorded on a Zeiss AxioImager.Z1 microscope using high aperture lenses and an AxioVision 4.8 software driven AxioCam MRm (10× lens, 1× optocoupler). Plaques for AT180 quantifcation were imaged with a 20× lens. Detail images for qualitative figures are 40× image stacks collapsed to 2D by the extended depth of field function of AxioVision software.
Descriptive statistical analysis was performed on all evaluated parameters, Kolmogorov Smirnov test were performed to test normal distribution of data. Data in graphs are represented as mean±SEM.

T1 sequence (P05067 672-713 limits assumed): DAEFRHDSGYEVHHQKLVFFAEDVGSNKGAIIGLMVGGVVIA
T2 sequence (P05067 672-713 limits assumed): as above

Q: Which anti-prion potential (prion) does the source give for `O=C(O)Cc1cc(-c2ccc(C(=O)O)s2)sc1-c1ccc(-c2sc(-c3ccc(C(=O)O)s3)cc2CC(=O)O)s1` [p-FTAA, reference compound] here?
A: pronounced anti-prion potential

Q: What about the “aggregated Aβ38, Aβ40 and Aβ42 in SDS fraction of brain homogenate” value [1] of the same compound?
A: significant SDS soluble Aβ lowering effect; also recorded: reduced

Q: What about the IC50 (biotinylated Aβ1-42) of the same compound?
A: 5.01 µM

Q: And the “CSF Aβ levels” value [2]?
A: reduced

Q: What about the AT180 load ([3]; 1 mg p-FTAA treatment, position 4) of the same compound?
A: significantly reduced

Q: What about the AT180 load ([3]; 10 mg p-FTAA treatment, positions 4 and 5) of the same compound?
A: highly significant reduction

Q: And the “AT180 IR in plaques of younger history of origin (hippocampal formation, subiculum, dentate gyrus)” value ([3]; 90 days i.p., hAPPSL Tg mice)?
A: drastically reduced
